# Legend:
# [1] = test system: Trichoderma reesei cellulase composition; assay: Nitrogen-containing compound effect(no GH61) on hydrolysis of AVICEL by T. reesei cellulase composition; assay type: biochemical; conditions: for reduction in hydrolysis: no GH61
# Method: The concentration of 1,2-benzenediamine compounds was 5 mM and the concentration of 2-aminophenol was 1 mM.
# The concentration of nitrogen-containing compounds was 5 mM.
# (§1) The concentration of the GH61 polypeptide was either 0.4 or 2 mg per g cellulose.
# [2] = biological target: Aspergillus fumigatus GH61B polypeptide (Aspergillus fumigatus, UniProt Q4WP32); assay: Effect of TEMPO on A. fumigatus GH61B during AVICEL hydrolysis by T. reesei cellulase composition; assay type: biochemical; conditions: GH61 0.4 or 2 mg per g cellulose, day 7
# Method: as §1
# [3] = test system: Thielavia terrestris GH61E polypeptide; assay: Effect of TEMPO on T. terrestris GH61E during AVICEL hydrolysis by T. reesei cellulase composition; assay type: biochemical
# Method: as §1
# [4] = biological target: Trichoderma reesei GH61B polypeptide (Trichoderma reesei, UniProt Q7Z9M7); assay: Effect of TEMPO on T. reesei GH61B during AVICEL hydrolysis by T. reesei cellulase composition; assay type: biochemical; conditions: GH61 0.4 or 2 mg per g cellulose, day 7
# Trichoderma reesei GH61B polypeptide, sequence (Q7Z9M7 20-249): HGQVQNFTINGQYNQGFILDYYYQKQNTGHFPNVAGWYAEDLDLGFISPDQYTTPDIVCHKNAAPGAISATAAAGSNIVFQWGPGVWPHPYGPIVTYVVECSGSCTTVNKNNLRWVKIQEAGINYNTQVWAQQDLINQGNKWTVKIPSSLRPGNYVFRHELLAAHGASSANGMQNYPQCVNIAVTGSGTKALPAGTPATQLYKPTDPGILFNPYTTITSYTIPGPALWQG
# Method: as §1
# [5] = test system: Talaromyces stipitatus GH61 polypeptide; assay: Effect of TEMPO on T. stipitatus GH61 during AVICEL hydrolysis by T. reesei cellulase composition; assay type: biochemical; conditions: GH61 0.4 or 2 mg per g cellulose, day 7
# Method: as §1
# [6] = test system: Penicillium pinophilum GH61A polypeptide; assay: Effect of TEMPO on P. pinophilum GH61A during AVICEL hydrolysis by T. reesei cellulase composition; assay type: biochemical; conditions: GH61 0.4 or 2 mg per g cellulose, day 7
# Method: as §1
# [7] = test system: T. reesei cellulase composition; assay: AVICEL cellulolysis by T. reesei cellulase composition with combinations of compounds and various GH61 polypeptides; assay type: biochemical, Trichoderma reesei
# [8] = test system: Trichoderma reesei cellulase composition; assay: Hydrolysis of AVICEL by T. reesei cellulase composition with and without GH61 polypeptide, no nitrogen-containing compound; assay type: biochemical
# Text: Microcrystalline cellulose was used as the source of the cellulosic material.
# [9] = Example 6, 5 mM compound, 14 mg/ml AVICEL, 1, 3, 5, 7 or 8 days (FIG. 2 white bars)
# [10] = pterin dissolved in DMSO, cellulose 29.5 mg per ml, 7 days
molecule,measurement,setting,value
CC(C)=NO [acetone oxime],nitrogen-containing compound effect(no GH61),[1]; [9],less than 1
"CC1(C)CCCC(C)(C)N1[O] [TEMPO, 2,2,6,6-tetramethyl-1-piperidinyloxy]",GH61 effect,[2],greater than 1
same,nitrogen-containing compound effect(+GH61),[2]; late stage,less than 1
same,nitrogen-containing compound effect(+GH61),"[3]; GH61 0.4 or 2 mg per g cellulose, 1, 3 and 7 days",~1
same,GH61 effect,"[3]; GH61 0.4 or 2 mg per g cellulose, day 1",greater than 1
same,nitrogen-containing compound effect(no GH61),[1]; [9],less than 1
same,nitrogen-containing compound effect(no GH61),"[1]; Example 7, TEMPO, late stage of hydrolysis, day 7 (FIGS. 3A, 3B)",less than 1
same,GH61 effect,[4],greater than 1
same,nitrogen-containing compound effect(+GH61),[4],less than 1
same,GH61 effect,[5],greater than 1
same,nitrogen-containing compound effect(+GH61),[5],less than 1
same,GH61 effect,[6],greater than 1
same,nitrogen-containing compound effect(+GH61),[6],less than 1
O=C1NC(=O)C(=NO)C(=O)N1 [violuric acid],nitrogen-containing compound effect(no GH61),[1]; [9],very slightly impacted
"CC1Nc2nc(N)[nH]c(=O)c2NC1C.Cl (stereo not shown) [6,7-dimethyl-5,6,7,8-tetrahydropterine hydrochloride]",nitrogen-containing compound effect(no GH61),"[1]; pterin dissolved in DMSO, cellulose 29.5 mg per ml, 1 day (so in the source)",0.715±0.00557
same,nitrogen-containing compound effect(no GH61),[1]; [10],0.684±0.0203
"C[C@H](O)[C@H](O)[C@H]1CNc2nc(N)[nH]c(=O)c2N1.Cl.Cl [(6R)-5,6,7,8-tetrahydrobiopterin dihydrochloride]",nitrogen-containing compound effect(no GH61),"[1]; pterin dissolved in DMSO, cellulose 29.5 mg per ml, 3 days",0.924±0.0191
same,nitrogen-containing compound effect(no GH61),[1]; [10],0.901±0.0332
Nc1ccccc1O [2-aminophenol],nitrogen-containing compound effect(no GH61),"[1]; 1 mM 2-aminophenol, cellulose 29.5 mg per ml, 3 days",0.951±0.0198
same,nitrogen-containing compound effect(no GH61),"[1]; 1 mM 2-aminophenol, cellulose 29.5 mg per ml, 7 days",0.902±0.0301
same,reduction in hydrolysis,"[1]; 1 mM 2-aminophenol, 3 days",approximately 5%
same,reduction in hydrolysis,"[1]; 1 mM 2-aminophenol, 7 days",approximately 10%
"Nc1ccccc1N [1,2-benzenediamine]",nitrogen-containing compound effect(no GH61),"[1]; 5 mM compound, 14 mg/ml AVICEL, 1, 5 and 8 days (FIG. 1A)",less than 1
ON=Cc1ccccn1 [pyridine-2-aldoxime],nitrogen-containing compound effect(no GH61),[1]; [9],slightly decreased
"T. aurantiacus GH61A polypeptide: GH61A polypeptide having cellulolytic enhancing activity, SEQ ID NO: 14, recombinantly prepared in Aspergillus oryzae JaL250 (protein, listed as Thermoascus aurantiacus) MSFSKIIATAGVLASASLVAGHGFVQNIVIDGKYYGGYLVNQYPYMSNPPEVIAWSTTATDLGFVDGTGYQTPDIICHRGAKPGALTAPVSPGGTVELQWTPWPDSHHGPVINYLAPCNGDCSTVDKTQLEFFKIAESGLINDDNPPGIWASDNLIAANNSWTVTIPTTIAPGNYVLRHEIIALHSAQNQDGAQNYPQCINLQVTGGGSDNPAGTLGTALYHDTDPGILINIYQKLSSYIIPGPPLYTG","overall conversion of AVICEL, comparison of GH61 polypeptides",[7]; most mixtures of compounds at 1 mM,greatest overall conversion
same,Percent conversion of AVICEL,"[8]; 14 mg/ml AVICEL, cellulase 4 mg/g cellulose, GH61 0.4 mg/g where present, pH 5.0, 50° C., 1 day",16±1%
same,Percent conversion of AVICEL,"[8]; same conditions, 3 days",30±4%
same,Percent conversion of AVICEL,"[8]; same conditions, 5 days",42.7±0.9%
same,Percent conversion of AVICEL,"[8]; same conditions, 7 days",45±4%
same,Percent conversion of AVICEL,"[8]; same conditions, 8 days",52.9±0.8%
"A. fumigatus GH61B polypeptide: GH61 polypeptide having cellulolytic enhancing activity, SEQ ID NO: 30, recombinantly prepared in Aspergillus oryzae JaL355 (protein, listed as Aspergillus fumigatus) MTLSKITSIAGLLASASLVAGHGFVSGIVADGKYYGGYLVNQYPYMSNPPDTIAWSTTATDLGFVDGTGYQSPDIICHRDAKNGKLTATVAAGSQIEFQWTTWPESHHGPLITYLAPCNGDCATVDKTTLKFVKIAAQGLIDGSNPPGVWADDEMIANNNTATVTIPASYAPGNYVLRHEIIALHSAGNLNGAQNYPQCFNIQITGGGSAQGSGTAGTSLYKNTDPGIKFDIYSDLSGGYPIPGPALFNA","overall conversion of AVICEL, comparison of GH61 polypeptides",[7]; mixtures of compounds at 3 mM,highest overall conversion
